Format in all cases: cell-based
One assay deals with U87 glioblastoma. Briefly: WST-1 proliferation assay, U87. Particulars: Homo sapiens; for IC50: Brain U87, 72 h, read-out: Anti-proliferative activity IC50 (μM) ± SD; for inhibition at 0.1 µM / inhibition at 0.5 µM / inhibition at 1 µM: U87 glioblastoma. The text has this: (§1) Several cancer cell lines were used: breast cancer cells (MDA-MB-231 (ATTCC® Number HTB-26™), MDA-MB-436 (ATTCC® Number HTB-130™), MDA-MB-438, BT-474 (ATTCC® Number HTB-20™)); cervical cancer cells (HeLa (ATTCC® Number CCL-2™)); colon cancer cells (HCT-116 (ATTCC® Number CCL-247™) and HT-29 (ATTCC® Number HTB-38™)); osteosarcoma cells (U2OS (ATTCC® Number HTB-96™)); pancreas cancer cells (MIA PaCa-2 (ATTCC® Number CRL-1420™) and Panc-10.5 (ATTCC® Number CRL-2547™)); prostate cancer cells (PC-3 (ATTCC® Number CRL-1435™) and LNCaP (ATTCC® Number CRL-1740™)); brain cancer cells (U87 glioblastoma (ATTCC® Number HTB-14™) and SH-SYSY neuroblastoma (ATTCC® Number CRL-2266™)).
(§2) All the cancer cell lines were maintained in cultured in DMEM GlutaMAX™ (GIBCO Invitrogen, France, cat no 31966047) enhanced with 10% foetal bovine serum (GIBCO Invitrogen, France, cat no 10270-106) and 1% penicillin G/streptomycin (GIBCO Invitrogen, France, cat no 15140-122). Only Panc-10.5 cells were cultivated in RPMI 1640 medium (Gibco) supplemented with 2 mM L-glutamine, 1.5 g/L sodium bicarbonate, 4.5 g/L glucose, 10 mM HEPES, 1 mM sodium pyruvate, 10 Units/ml human insulin, […] (SVF): 15% (75 ml in 500 ml of medium).
(§3) Cells were grown as subconfluent monolayer and cultured in 75 cm^2 flasks at 37° C., 5% CO2 in a humidified atmosphere, and medium was changed every two days. Only cells from passages 2-6 were used for the experiments.
(§4) After observation of cells under the microscope, old media were removed and the adherent cells washed gently twice with PBS (Phosphate Buffer Saline, —Ca^2+, —Mg^2+, Lonza cat no: 17-512F/12). All cells were detached with 3 ml of trypsin/EDTA (chelator of calcium and magnesium ions) (Lonza), incubated for 5 min at 37° C., and examined using a microscope to ensure that the cells were detached and floating. Then, 3 ml TNS (Trypsin Neutralizing Solution, Lonza, France, cat no CC-5002) or of culture medium were added to inactivate the trypsin, and the cell suspension was transferred in a falcon and centrifuged for 7 min at 1400 rpm. The supernatant was removed and the cell pellet resuspended in […] of culture medium. 50 μl of this solution were transferred in 20 μl of isotonic solution and the cells were counted by count cellular (Beckman Coulter). At day 0, 200 μl of cellular suspension (3.10^3 cells/well for the HUVEC cells, breast cancer cells (MDA-MB-231 1.10^4 cells/well, MDA-MB-436 1.10^4 cells/well, MDA-MB-438 2.10^4 cells/well, BT-474 2.5.10^4 cells/well); cervical cancer cells (HeLa 5.000 cells/well); colon cancer cells (HCT-116 5.10^3 cells/well, HCT-29 1.1.10^4 cells/well); osteosarcoma cells (U2OS 8.10^3 cells/well); pancreas cancer cells (MIA PaCa-2 5.10^3 cells/well, Panc-10.5 1.5.10^4 cells/well); prostate cancer cells (PC-3 4.10^3 cells/well, LNCaP 2.10^4 cells/well); brain cancer cells (U87 5.10^3 cells/well, SH-SYSY 8.10^4 cells/well)) were then plated on 96 well plates and incubated at 37° C. in a humidified atmosphere of 5% CO2 for 24 h.
(§5) At day 1, the compounds 1 or 2 of the invention were added at increasing concentrations (0.1-10 μM) in the wells and plates were incubated at 37° C. in a humidified atmosphere of 5% CO2 for 72 h.
(§6) The cell proliferation WST-1 assay is a colorimetric assay for the quantification of cell proliferation and viability, based on the enzymatic cleavage of the tetrazolium salt WST-1 added to the culture medium, to a water soluble colored formazan dye, detected by absorbance at 450 nm, by mitochondrial succinate-tetrazolium reductase in viable cells. An augmentation in enzyme activity will then lead to an increase in the amount of formazan dye formed, which directly correlates to the number of metabolically active cells in the culture.
(§7) After an incubation period of 72 h, at day 4, were prepared the 19 ml medium with reagent WST-1 1 ml ([…]). The medium was removed from the 96 microplate and 200 μl of solution WST-1/medium were added for each well. […]
On the technique in general: Formazan colour is commonly taken as a measure of viable cells.

The subject of another assay is U2OS. Kind of assay: WST-1 proliferation assay, U2OS. Particulars: Homo sapiens; for IC50: Osteosarcoma U2OS, 72 h, read-out: Anti-proliferative activity IC50 (μM) ± SD; for inhibition at 0.1 µM / inhibition at 0.5 µM / inhibition at 1 µM: U2OS.
Description: as §1, §2, §3, §4, §5, §6, §7

The test system of the next assay is PC-3. Kind of assay: WST-1 proliferation assay, PC-3. Particulars: Homo sapiens; for inhibition at 0.1 µM: PC-3, 0.1 μM; for inhibition at 0.5 µM: PC-3, 0.5 μM; for inhibition at 1 µM: PC-3, 1 μM; for IC50: Prostate PC-3, 72 h, read-out: Anti-proliferative activity IC50 (μM) ± SD.
Description: as §1, §2, §3, §4, §5, §6, §7

The test system of a further assay is HUVEC. Kind of assay: Tube maintenance assay. The settings on record: VEGF-A165-treated HUVEC in collagen, 24 h treatment (FIG. 3C). The protocol: A 96-well plate was coated with 70 μl of collagen/media solution (NaOH 0.1N, 48 μL 10× Na2HCO3 and 0.5 mL EBM2) and allowed to solidify at 37° C. for 3 min. HUVEC were seeded at a density of 8×10^5 cells for well in 100 μl complete culture medium. After confluent monolayer formation, a second collagen gel layer with EBM2 supplemented with 50 ng/ml of VEGF-A165 was added over cells and plates were incubated for 24 h at 37° C. and 5% CO2 to allow tube formation.

The structures appear in SMILES notation.

The IC50 is the concentration that gives 50% inhibition. The inhibition is how much of the control response was suppressed. A lower inhibition goes with a response near the control. Consider `Cc1ccc(-c2nc3ccccc3[nH]2)cc1NC(=S)NC(=O)c1ccc2c(c1)OCCO2` [Compound 1, N-[5-(1H-benzimidazol-2-yl)-2-methylphenyl]-N′-(2,3-dihydro-1,4-benzodioxin-6-ylcarbonyl)thiourea], for which, in the assay on U87 glioblastoma, the IC50 was 1 µM, the inhibition at 0.1 µM is 0%, the inhibition at 0.5 µM is 45% and 1 µM produced 54% inhibition. Moreover, in the assay on U2OS, the IC50 amounted to 2.3 ± 0.04 µM, testing at 0.1 µM gave an inhibition of 15%, 0.5 µM produced 29% inhibition and the inhibition at 1 µM came out at 36%. For the same compound, in the assay on PC-3, the inhibition at 0.1 µM worked out at 3%, the inhibition at 0.5 µM was found to be 25%, testing at 1 µM gave an inhibition of 47% and the 50% inhibitory concentration (IC50) was 1.7 ± 0.04 µM. Moreover, the “maintenance of new blood vessels (tube maintenance)” value in the assay with HUVEC is recorded as “effectively inhibited”.
For the compound `O=C(NC(=S)Nc1cccc(-c2nc3ccccc3[nH]2)c1)c1ccc2c(c1)OCCO2` [Compound 2, N-[3-(1H-benzimidazol-2-yl)phenyl]-N′-(2,3-dihydro-1,4-benzodioxin-6-ylcarbonyl)thiourea], in the assay on U87 glioblastoma, the IC50 was 0.3 ± 0.02 µM, at 0.1 µM the inhibition was 44%, the inhibition at 0.5 µM came to 60% and the inhibition at 1 µM amounted to 61%. Also, in the assay on U2OS, the IC50 was 1.8 ± 0.05 µM, the inhibition at 0.1 µM worked out at 31%, the inhibition at 0.5 µM turned out to be 41% and the inhibition at 1 µM was 44%. In the assay with PC-3, at 0.1 µM the inhibition was 29%, the inhibition at 0.5 µM turned out to be 46%, the inhibition at 1 µM worked out at 46% and the IC50 came out at 1.5 ± 0.12 µM. Moreover, in the assay on HUVEC, the “maintenance of new blood vessels (tube maintenance)” value is “effectively inhibited”.
